From patent US6211210A, “Diphenyl-1,2,3-thiadiazol-3-oxides, compositions and methods of use” (Merck Frosst Canada & Co., priority 2000, dated 2001)

How the values were obtained:
[1] = system: carrageenan paw edema, rats; experiment: Rat paw edema assay (carrageenan); type: in vivo, Male Sprague-Dawley rats; conditions: po, 1 hr before carrageenan, paw volume 3 hr later, read-out: ED50 (edema inhibition in rat paw)
Protocol: Male Sprague-Dawley rats (150-200 g) were fasted overnight and were given, po, either vehicle (1% methocel or 5% Tween 80), or a test compound. One hr later, a line was drawn using a permanent marker at the level above the ankle in one hind paw to define the area of the paw to be monitored. The paw volume (V0) was measured using a plethysmometer (Ugo-Basile, Italy) based on the principle of water displacement. The animals were then injected subplantarly with 50 ,l of 1% carrageenan solution in saline (FMC Corp, Maine) into the paw using an insulin syringe with a 25-gauge needle (i.e., 500 μg carrageenan per paw). Three hr later, the paw volume (V3) was measured and the increases in paw volume (V3 -V0) were calculated. The animals were sacrificed by CO2 asphyxiation and the absence or presence of stomach lesions scored. Data were compared with the vehicle-control values and percent inhibition calculated. ED50 values were used for comparison. All treatment groups were coded to eliminate observer bias.

[2] = biological target: T1, COX-1 (Homo sapiens, UniProt P23219); experiment: Human whole blood assay: COX-1 (clotting-induced TxB2 production); type: cell-based; conditions: clotting-induced TxB2, 1 hour at 37° C.
T1 construct: platelets in whole blood contain a large amount of the COX-1 enzyme; endogenous in cells; host or cells: platelets in fresh human whole blood
T1 sequence (P23219 24-599): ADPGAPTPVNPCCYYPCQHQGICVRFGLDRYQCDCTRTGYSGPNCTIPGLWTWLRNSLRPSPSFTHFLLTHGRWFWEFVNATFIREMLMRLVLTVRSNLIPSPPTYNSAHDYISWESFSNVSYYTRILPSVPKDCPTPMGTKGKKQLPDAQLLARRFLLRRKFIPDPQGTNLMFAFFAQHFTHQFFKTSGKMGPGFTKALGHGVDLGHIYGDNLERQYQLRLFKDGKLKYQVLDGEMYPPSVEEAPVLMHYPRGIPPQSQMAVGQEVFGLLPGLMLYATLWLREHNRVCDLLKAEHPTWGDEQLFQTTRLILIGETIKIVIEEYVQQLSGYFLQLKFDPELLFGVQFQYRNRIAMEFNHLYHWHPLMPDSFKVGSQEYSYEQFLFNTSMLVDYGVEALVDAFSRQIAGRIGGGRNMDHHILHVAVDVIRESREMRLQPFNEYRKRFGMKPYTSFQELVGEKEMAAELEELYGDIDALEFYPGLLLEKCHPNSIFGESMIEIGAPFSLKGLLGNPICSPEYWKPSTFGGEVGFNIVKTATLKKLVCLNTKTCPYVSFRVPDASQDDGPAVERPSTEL
Excerpt: (§1) As well, platelets in whole blood contain a large amount of the COX-1 enzyme. Immediately following blood clotting, platelets are activated through a thrombin-mediated mechanism. This reaction results in the production of thromboxane B2 (TxB2) via activation of COX-1. Thus, the effect of test compounds on TxB2 levels following blood clotting can be examined and used as an index for COX-1 activity. Therefore, the degree of selectivity by the test compound can be determined by measuring the levels of PGE2 after LPS induction (COX-2) and TxB2 following blood clotting (COX-1) in the same assay.
Fresh blood was collected into vacutainer tubes containing no anticoagulants. […] The tubes were vortexed and incubated at 37° C. for 1 hour to allow blood to clot. Serum was obtained by centrifugation (12,000×g for 5 min). Serum protein is precipitated by mixing a 100 μL aliquot of serum with 400 μL of methanol.
(§2) In the assay, inhibition is determined by measuring the amount of prostaglandin E2 (PGE2) synthesized in the presence of arachidonic acid, COX-1 or COX-2 and a putative inhibitor.

[3] = biological target: T2, COX-2 (Homo sapiens, UniProt P35354); experiment: Human whole blood assay: COX-2 (LPS-induced PGE2 production); type: cell-based; conditions: LPS-induced PGE2, 24 hours at 37° C.
T2 construct: incubation of human whole blood with LPS which induces COX-2; endogenous in cells
T2 sequence (P35354 18-604): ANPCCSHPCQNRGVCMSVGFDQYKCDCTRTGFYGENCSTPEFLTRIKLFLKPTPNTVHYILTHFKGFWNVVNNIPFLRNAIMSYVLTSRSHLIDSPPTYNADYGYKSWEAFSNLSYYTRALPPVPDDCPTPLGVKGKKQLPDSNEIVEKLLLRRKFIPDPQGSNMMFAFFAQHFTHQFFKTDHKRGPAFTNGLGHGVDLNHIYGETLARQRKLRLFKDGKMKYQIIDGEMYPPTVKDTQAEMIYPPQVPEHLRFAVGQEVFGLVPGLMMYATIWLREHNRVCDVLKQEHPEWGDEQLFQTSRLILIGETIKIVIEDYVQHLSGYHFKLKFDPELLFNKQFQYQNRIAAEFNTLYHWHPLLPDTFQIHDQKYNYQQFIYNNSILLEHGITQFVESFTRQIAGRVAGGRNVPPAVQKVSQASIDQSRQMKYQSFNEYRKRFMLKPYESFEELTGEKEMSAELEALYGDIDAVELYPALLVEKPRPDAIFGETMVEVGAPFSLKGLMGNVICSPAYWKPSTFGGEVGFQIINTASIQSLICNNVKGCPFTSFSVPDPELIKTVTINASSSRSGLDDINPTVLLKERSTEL
Excerpt: as §1
Fresh blood was collected in heparinized tubes by venipuncture from both male and female volunteers. The subjects had no apparent inflammatory conditions and had not taken any NSAIDs for at least 7 days prior to blood collection. Plasma was immediately obtained from a 2 mL blood aliquot to use as blank (basal levels of PGE2). […] Five hundred μL aliquots of blood were incubated with either […] vehicle (DMSO) or 2 μL of a test compound at final concentrations varying from 10 nM to 30 μM for 24 hours at 37° C. At the end of the incubation, the blood was centrifuged at 12,000×g for 5 minutes to obtain plasma. Protein in the plasma is precipitated by mixing a 100 μL aliquot of plasma with 400 μL of methanol. The supernatant was assayed for PGE2 using a radioimmunoassay kit (Amersham, RPA#530) after conversion of PGE2 to its methyl oximate derivative according to the manufacturer's procedure.
as §2

IC50 [2]	IC50 [3]	Compound	ED50 [1]
38000 nM	600 nM	CS(=O)(=O)c1ccc(-c2sn[n+]([O-])c2-c2ccccc2)cc1 [Example 1, 4-PHENYL-5-(4-(METHYLSULFONYL)PHENYL-1-2-3--THIADIAZOL-3-OXIDE]	0.9 mg/kg
18000 nM	600 nM	CS(=O)(=O)c1ccc(-c2sn[n+]([O-])c2-c2ccc(F)cc2)cc1 [Example 2, 4-(4-FLUOROPHENYL)-5-(4-(METHYLSULFONYL)PHENYL-1-2-3-THIADIAZOL-3-OXIDE]	0.5 mg/kg
	500 nM	CS(=O)(=O)c1ccc(-c2sn[n+]([O-])c2-c2cccc(Cl)c2)cc1 [Example 5, 4-(3-CHLOROPHENYL)-5-(4-(METHYLSULFONYL)PHENYL-1-2-3-THIADIAZOL-3-OXIDE]	1.5 mg/kg
88000 nM	1300 nM	CS(=O)(=O)c1ccc(-c2sn[n+]([O-])c2-c2cccc(F)c2)cc1 [Example 3, 4-(3-FLUOROPHENYL)-5-(4-(METHYLSULFONYL)PHENYL-1-2-3-THIADIAZOL-3-OXIDE]	
57000 nM	500 nM	CS(=O)(=O)c1ccc(-c2sn[n+]([O-])c2-c2ccc(F)c(F)c2)cc1 [Example 4, 4-(3,4-DIFLUOROPHENYL)-5-(4-(METHYLSULFONYL)PHENYL-1-2-3-THIADIAZOL-3-OXIDE]	
		COc1ccc2c(c1)c(CC(=O)O)c(C)n2C(=O)c1ccc(Cl)cc1 [Indomethacin, reference compound]	2 mg/kg
